Our source for the Relative activity values is ChEMBL document CHEMBL1149985, “Novel synthesis of nucleoside 5-polyphosphates” (Bioorg Med Chem Lett, 1996).

Experiment [1] concerns Dictyostelium discoideum. The experiment is described as follows: Compound was evaluated for nucleoside diphosphate kinase (NDP-kinase) activity.
For experiment [2], the system named is Dictyostelium discoideum. As to the kind of experiment: Compound was evaluated for nucleoside diphosphate kinase (NDP-kinase) activity relative to Adenosine triphosphate (100). Also noted: concentration or dose not given beside the values.

Turning to `Nc1ncnc2c1ncn2[C@@H]1O[C@H](COP(=O)(O)OP(=O)(O)OP(=O)(O)O)[C@@H](O)[C@H]1O`, the Relative activity in the experiment with Dictyostelium discoideum [1] was found to be 100%. For `O=P(O)(O)OP(=O)(O)OP(=O)(O)OC[C@H]1O[C@@H](n2cnc3c(Cl)ncnc32)[C@H](O)[C@@H]1O`, the Relative activity in the experiment on Dictyostelium discoideum [2] was determined as 110%. As for `Nc1ncnc2c1nc(Cl)n2[C@@H]1O[C@H](COP(=O)(O)OP(=O)(O)OP(=O)(O)O)[C@@H](O)[C@H]1O`, the Relative activity in the experiment on Dictyostelium discoideum [2] is 140%. Regarding `O=P(O)(O)OP(=O)(O)OP(=O)(O)OC[C@H]1O[C@@H](n2cnc3cncnc32)[C@H](O)[C@@H]1O`, the Relative activity in the experiment on Dictyostelium discoideum [2] is 130%.

Consider `Nc1ncnc2c1ccn2[C@@H]1O[C@H](COP(=O)(O)OP(=O)(O)OP(=O)(O)O)[C@@H](O)[C@H]1O`, for which, in the experiment with Dictyostelium discoideum [2], the Relative activity amounted to 155%. Turning to `O=P(O)(O)OP(=O)(O)OP(=O)(O)OC[C@H]1O[C@@H](n2cnc3cc(Cl)c(Cl)cc32)[C@H](O)[C@@H]1O`, the Relative activity in the experiment on Dictyostelium discoideum [2] is 145%.
